Experimental data as given in US9062321B2 (priority 2004, dated 2015).

Experiments:
BuChE [1] = biological target: T1, BuChE (Homo sapiens, UniProt P06276); test: Sensitivity of BuChE to cholinesterase inhibitors (background); type: biochemical; details: ratio of Ki BuChE to Ki AChE
BuChE [2] = biological target: T1, BuChE; details: in words; cited from earlier work

T1 sequence (P06276 29-602): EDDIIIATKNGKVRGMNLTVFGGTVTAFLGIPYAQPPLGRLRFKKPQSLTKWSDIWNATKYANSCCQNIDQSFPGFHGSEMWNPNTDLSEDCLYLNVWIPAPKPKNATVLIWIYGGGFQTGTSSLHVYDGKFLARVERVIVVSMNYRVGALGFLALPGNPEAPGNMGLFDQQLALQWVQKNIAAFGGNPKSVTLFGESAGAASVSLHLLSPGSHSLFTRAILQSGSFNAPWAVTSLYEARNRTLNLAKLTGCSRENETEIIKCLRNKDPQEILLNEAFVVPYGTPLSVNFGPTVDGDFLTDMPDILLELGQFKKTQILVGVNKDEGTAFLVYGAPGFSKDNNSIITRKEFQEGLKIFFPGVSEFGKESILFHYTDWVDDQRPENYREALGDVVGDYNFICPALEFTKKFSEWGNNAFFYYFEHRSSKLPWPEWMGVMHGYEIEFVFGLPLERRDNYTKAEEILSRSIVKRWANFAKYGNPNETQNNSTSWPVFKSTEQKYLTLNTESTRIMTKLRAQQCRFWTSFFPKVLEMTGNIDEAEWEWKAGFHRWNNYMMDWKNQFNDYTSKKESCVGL

| SMILES | difference in sensitivity of BuChE compared to AChE (BuChE [1]) [fold] | sensitivity of BuChE to the inhibitor compared with AChE (BuChE [2]) |
| --- | --- | --- |
| C=CC[N+](C)(C)c1ccc(CCC(=O)CCc2ccc([N+](C)(C)CC=C)cc2)cc1 [BW284c51, 1,5-bis(4-allyldimethylammoniumphenyl)pentan-3-one dibromide] | 1400 | – |
| CC(C)NP(=O)(NC(C)C)OP(=O)(NC(C)C)NC(C)C [Iso-OMPA, tetraisopropyl pyrophosphoramide] | – | much more sensitive |
